Measurements as given in patent US10770169B2, “Method of providing a treatment to a subject based on a dynamic pathway map” (THE REGENTS OF THE UNIVERSITY OF CALIFORNIA, priority 2010, dated 2020).
Read-outs that look alike come from different tables or passages of the source.

Columns and labels:
[1] = system: panel of 55 breast cancer cell lines; assay: Cell growth inhibition assay (Cell Titer Glo, 72 h, 9 doses; GI50, TGI, LC50); format: cell-based, human; settings: Homo sapiens, read-out: GI50 (converted)
[2] = system: luminal, basal, claudin-low and ERBB2AMP breast cancer cell lines; assay: Associations of clinically relevant subtypes and response (non-parametric ANOVA or t-test on GI50 ranks); format: cell-based, human
Procedure, shortened: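 Significance was set at FDR p<0.20 after combining p-values across three test sets. Subtype–response associations came from rank-based non-parametric ANOVA or t-tests on GI50. For three-class comparisons, post-hoc tests of each group against the rest identified the most sensitive group, with FDR correction.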

CC(=O)O[C@@]12CO[C@@H]1C[C@H](O)[C@@]1(C)C(=O)[C@H](O)C3=C(C)[C@@H](OC(=O)[C@H](O)[C@@H](NC(=O)OC(C)(C)C)c4ccccc4)C[C@@](O)([C@@H](OC(=O)c4ccccc4)[C@H]21)C3(C)C [Docetaxel]
GI50 ([1]; 600MPE cell line, censored GI50 values): 97.7 nM
GI50 ([1]; AU565, AU565 cell line, censored GI50 values): 5.25 nM
GI50 ([1]; AU565, cell line AU565): 5.25 nM
GI50 ([1]; BT-474, BT474 cell line, censored GI50 values): 6.31 nM
GI50 ([1]; BT-474, cell line BT474): 6.31 nM
GI50 ([1]; BT-483, BT483 cell line, censored GI50 values): 23.4 nM
GI50 ([1]; BT-483, cell line BT483): 23.4 nM
GI50 ([1]; CAMA-1, CAMA1 cell line, censored GI50 values): 5.62 nM
GI50 ([1]; CAMA-1, cell line CAMA1): 5.62 nM
GI50 ([1]; HCC38, HCC38 cell line, censored GI50 values): 2.04 nM
GI50 ([1]; HCC38, cell line HCC38): 2.04 nM
GI50 ([1]; HCC70, HCC70 cell line, censored GI50 values): 5.13 nM
GI50 ([1]; HCC70, cell line HCC70): 5.13 nM
GI50 ([1]; HCC202, HCC202 cell line, censored GI50 values): 3.72 nM
GI50 ([1]; HCC202, cell line HCC202): 3.72 nM
GI50 ([1]; HCC1143, HCC1143 cell line, censored GI50 values): 11 nM
GI50 ([1]; HCC1143, cell line HCC1143): 11 nM
GI50 ([1]; HCC1187, HCC1187 cell line, censored GI50 values): 2.51 nM
GI50 ([1]; HCC1187, cell line HCC1187): 2.51 nM
GI50 ([1]; HCC1395, HCC1395 cell line, censored GI50 values): 5.62 nM
GI50 ([1]; HCC1395, cell line HCC1395): 5.62 nM
GI50 ([1]; HCC1419, HCC1419 cell line, censored GI50 values): 16.6 nM
GI50 ([1]; HCC1419, cell line HCC1419): 16.6 nM
GI50 ([1]; HCC1428, HCC1428 cell line, censored GI50 values): 5010 nM
GI50 ([1]; HCC1428, cell line HCC1428): 5010 nM
GI50 ([1]; HCC1500, HCC1500 cell line, censored GI50 values): 2.75 nM
GI50 ([1]; HCC1500, cell line HCC1500): 2.75 nM
GI50 ([1]; HCC1806, HCC1806 cell line, censored GI50 values): 2.57 nM
GI50 ([1]; HCC1806, cell line HCC1806): 2.57 nM
GI50 ([1]; HCC1954, HCC1954 cell line, censored GI50 values): 1.66 nM
GI50 ([1]; HCC1954, cell line HCC1954): 1.66 nM
GI50 ([1]; HCC2185 cell line, censored GI50 values): 3.02 nM
GI50 ([1]; HCC3153 cell line, censored GI50 values): 9.77 nM
GI50 ([1]; LY2 cell line, censored GI50 values): 4.27 nM
GI50 ([1]; MCF7, MCF7 cell line, censored GI50 values): 12.3 nM
GI50 ([1]; MCF7, cell line MCF7): 12.3 nM
GI50 ([1]; MDA-MB-134-VI, MDAMB134VI cell line, censored GI50 values): 23.4 nM
GI50 ([1]; MDA-MB-175-VII, MDAMB175VII cell line, censored GI50 values): 15.8 nM
GI50 ([1]; MDA-MB-231, MDAMB231 cell line, censored GI50 values): 2.82 nM
GI50 ([1]; MDA-MB-231, cell line MDAMB231): 2.82 nM
GI50 ([1]; MDA-MB-361, MDAMB361 cell line, censored GI50 values): 5.62 nM
GI50 ([1]; MDA-MB-361, cell line MDAMB361): 5.62 nM
GI50 ([1]; MDA-MB-415, MDAMB415 cell line, censored GI50 values): 2.88 nM
GI50 ([1]; MDA-MB-415, cell line MDAMB415): 2.88 nM
GI50 ([1]; MDA-MB-436, MDAMB436 cell line, censored GI50 values): 17 nM
GI50 ([1]; MDA-MB-436, cell line MDAMB436): 17 nM
GI50 ([1]; MDA-MB-453, MDAMB453 cell line, censored GI50 values): 4.37 nM
GI50 ([1]; MDA-MB-453, cell line MDAMB453): 4.37 nM
GI50 ([1]; MDA-MB-468, MDAMB468 cell line, censored GI50 values): 2.88 nM
GI50 ([1]; MDA-MB-468, cell line MDAMB468): 2.88 nM
GI50 ([1]; SK-BR-3, SKBR3 cell line, censored GI50 values): 7.59 nM
GI50 ([1]; SK-BR-3, cell line SKBR3): 7.59 nM
GI50 ([1]; SUM52PE, SUM52PE cell line, censored GI50 values): 1.82 nM
GI50 ([1]; SUM52PE, cell line SUM52PE): 1.82 nM
GI50 ([1]; SUM149PT, SUM149PT cell line, censored GI50 values): 1.74 nM
GI50 ([1]; SUM149PT, cell line SUM149PT): 1.74 nM
GI50 ([1]; SUM185PE, SUM185PE cell line, censored GI50 values): 5010 nM
GI50 ([1]; SUM185PE, cell line SUM185PE): 5010 nM
GI50 ([1]; SUM1315MO2, SUM1315MO2 cell line, censored GI50 values): 2.95 nM
GI50 ([1]; SUM-159-PT, SUM159PT cell line, censored GI50 values): 4.57 nM
GI50 ([1]; SUM-159-PT, cell line SUM159PT): 4.57 nM
GI50 ([1]; UACC-812, UACC812 cell line, censored GI50 values): 3.24 nM
GI50 ([1]; UACC-812, cell line UACC812): 3.24 nM
GI50 ([1]; UACC-893, UACC893 cell line, censored GI50 values): 11.5 nM
GI50 ([1]; UACC-893, cell line UACC893): 11.5 nM
GI50 ([1]; ZR-75-1, ZR751 cell line, censored GI50 values): 28.2 nM
GI50 ([1]; ZR-75-1, cell line ZR751): 28.2 nM
GI50 ([1]; ZR-75-30, ZR7530 cell line, censored GI50 values): 3.98 nM
GI50 ([1]; ZR-75-30, cell line ZR7530): 3.98 nM
GI50 ([1]; ZR-75B, ZR75B cell line, censored GI50 values): 15.5 nM
GI50 ([1]; ZR-75B, cell line ZR75B): 15.5 nM
GI50 ([1]; cell line 600MPE): 97.7 nM
GI50 ([1]; cell line HCC2185): 3.02 nM
GI50 ([1]; cell line HCC3153): 9.77 nM
GI50 ([1]; cell line LY2): 4.27 nM
GI50 ([1]; cell line MDAMB134V): 23.4 nM
GI50 ([1]; cell line MDAMB175V): 15.8 nM
GI50 ([1]; cell line SUM1315MO): 2.95 nM
subtype-specific response (sensitivity by transcriptional subtype) ([2]; GI50 across subtypes): preferential activity in basal and/or claudin-low cell lines
Subtype specificity ([2]; Table 6, most sensitive subtype, FDR p<0.20): Basal
